Measured values as given in publication PMC2866738 (Biochemistry, 2010).

Test system: IN double-mutant G140S-Q148H (SH)
Type: biochemical

Compound: Cc1nnc(C(=O)NC(C)(C)c2nc(C(=O)NCc3ccc(F)cc3)c(O)c(=O)n2C)o1 [RAL, Raltegravir]
- increase in IC50 for 3′-P compared to WT (resistance factor): more than 62 fold
